Measurements reported in publication PMC10318822, “Phase 1 dose-escalation study to evaluate the safety, tolerability, pharmacokinetics, and anti-tumor activity of FCN-159 in adults with neurofibromatosis type 1-related unresectable plexiform neurofibromas” (BMC Medicine, 2023).

Test system: adult patients with NF1-related PN
Experiment: Phase I dose-escalation: DLT, MTD, RP2D and drug-related TEAEs (CTCAE v5.0)
Procedure: This is a multicenter, open-label, single-arm, non-randomized, phase I dose-escalation trial to evaluate the safety, tolerability, pharmacokinetic (PK), and anti-tumor activity of orally administered FCN-159 in adult patients with NF1 (NCT04954001). Phase I commenced with dose escalation in adult patients following a standard 3 + 3 design (Supplementary Table S1) to determine the maximum tolerated dose (MTD) of FCN-159 administered daily under fasting conditions (defined as no food or drink 1 h before and 2 h after each dose) in 28-day cycles. Study drug was dispensed at the study site and patient adherence was monitored by the records of drug dispensation and return. Patients were on treatment until PD, death, patient's voluntary withdrawal from study treatment, or study termination. The study was followed for 2 years after the last patient in. The starting dose was 4 mg, escalating in cohorts of at least three evaluable patients at 6 mg, 8 mg, and 12 mg until the MTD was determined. The starting dose in this study was determined based on available data from a phase 1a, first-in-human study of FCN-159 in patients with advanced NRAS ^mut+ melanoma at the time of study design. […] Dose expansion at a likely RP2D level enrolled approximately six patients. The highest dose level with a dose-limiting toxicity (DLT) incidence rate ≤ 33% (0/3 or 1/6 patients) was to be considered the MTD. If patients experienced grade ≥ 3 and/or unacceptable toxic events that were considered as at least possibly related to the study treatment, the study treatment was discontinued and supportive treatment was given in accordance with local treatment routines. If the toxicity returned to grade ≤ 2 within 28 days after the occurrence, and there was no progression on patients’ conditions or the investigator believed that patients could benefit from the study treatment, the original dose could be maintained or reduced after discussion with medical monitor. After completion of the dose escalation part of the study, PK, efficacy, safety, and tolerability data were analyzed to select the RP2D.
Primary endpoints of the study were the DLT incidence rate, MTD, and RP2D. Secondary endpoints included other safety assessments, imaging tumor response (complete response [CR], PR, stable disease [SD], or progressive disease [PD]), and PK parameters of FCN-159. Adverse events were graded per CTCAE v5.0.
All patients underwent a complete medical history, physical examination, Eastern Cooperative Oncology Group (ECOG) assessment, and laboratory analysis of test results. Drug-related TEAEs, serious adverse events (SAEs), TEAEs of grade ≥ 3 toxicity, and TEAEs leading to drug discontinuation were reviewed on an ongoing basis. Efficacy was assessed by radiologic scans and clinical assessment. Tumor assessments per Response Evaluation in Neurofibromatosis Schwannomatosis criteria were performed by investigators using MRI volumetric analysis every 4 cycles within the first 2 years (± 7 days) and every 6 cycles after 2 years (± 14 days) until PD, death, patient's voluntary withdrawal from study treatment, or study termination. MRI sequences of […], T1- and T2-weighted sequences were chosen and the software of Extended Brilliance Workspace, SIGNA Premier and uExceed were used for MRI volumetric analysis. The same software was used for all tumor assessments at baseline and subsequent assessed timepoints of the same patient. Pain was assessed by an 11-point numerical rating scale (NRS-11).
The sample size for the dose-escalation study was estimated to be 24 based on the 3 + 3 method. Safety was analyzed in patients who received at least one dose of FCN-159 and had at least one safety assessment. DLT was assessed in the DLT analysis set, defined as patients who were enrolled in the dose-escalation study and met the DLT evaluation criteria.

With `Cn1c(=O)c(F)c(Nc2ccc(I)cc2F)c2c(=O)n(C3CC3)nc(-c3cccc(NS(=O)(=O)C4CC4)c3)c21` [FCN-159] the “Drug-related TEAE: Urticaria” value (12 mg (N = 4)) was 1 (25.0) n (%), the “Drug-related TEAE: Vision blurred” value (12 mg (N = 4)) was 0 n (%) and the “Drug-related TEAE: Visual acuity reduced” value (12 mg (N = 4)) was 0 n (%). For the same molecule, the “Drug-related TEAE: pH urine decreased” value (12 mg (N = 4)) was 0 n (%), the “Drug-related TEAE: pH urine increased” value (12 mg (N = 4)) was 0 n (%) and the “Subjects with any drug-related TEAE” value (12 mg (N = 4)) was 4 (100) n (%). The “Patients with DLT (grade 3 folliculitis)” value (12 mg, 3 of 3 patients) was 100%, the “Drug-related TEAE: Abdominal pain” value (Total (N = 19)) was 1 (5.3) n (%) and the “Drug-related TEAE: Acne” value (Total (N = 19)) was 1 (5.3) n (%). For the same molecule, the “Drug-related TEAE: Acne pustular” value (Total (N = 19)) was 1 (5.3) n (%), the “Drug-related TEAE: Alanine aminotransferase increased” value (Total (N = 19)) was 2 (10.5) n (%) and the “Drug-related TEAE: Albumin globulin ratio decreased” value (Total (N = 19)) was 1 (5.3) n (%). The “Drug-related TEAE: Alopecia” value (Total (N = 19)) was 5 (26.3) n (%), the “Drug-related TEAE: Amylase increased” value (Total (N = 19)) was 1 (5.3) n (%) and the “Drug-related TEAE: Anemia” value (Total (N = 19)) was 1 (5.3) n (%). The “Drug-related TEAE: Aortic dilatation” value (Total (N = 19)) was 1 (5.3) n (%), the “Drug-related TEAE: Aspartate aminotransferase increased” value (Total (N = 19)) was 2 (10.5) n (%) and the “Drug-related TEAE: Asthenia” value (Total (N = 19)) was 1 (5.3) n (%). For the same molecule, the “Drug-related TEAE: Beta globulin decreased” value (Total (N = 19)) was 1 (5.3) n (%), the “Drug-related TEAE: Beta globulin increased” value (Total (N = 19)) was 2 (10.5) n (%) and the “Drug-related TEAE: Blood alkaline phosphatase increased” value (Total (N = 19)) was 6 (31.6) n (%). The “Drug-related TEAE: Blood bilirubin increased” value (Total (N = 19)) was 5 (26.3) n (%), the “Drug-related TEAE: Blood creatine phosphokinase increased” value (Total (N = 19)) was 3 (15.8) n (%) and the “Drug-related TEAE: Blood fibrinogen increased” value (Total (N = 19)) was 4 (21.1) n (%). For the same molecule, the “Drug-related TEAE: Blood lactate dehydrogenase increased” value (Total (N = 19)) was 4 (21.1) n (%), the “Drug-related TEAE: Blood pressure increased” value (Total (N = 19)) was 1 (5.3) n (%) and the “Drug-related TEAE: Blood urea increased” value (Total (N = 19)) was 4 (21.1) n (%). For the same molecule, the “Drug-related TEAE: Blood uric acid increased” value (Total (N = 19)) was 2 (10.5) n (%), the “Drug-related TEAE: Breath odor” value (Total (N = 19)) was 3 (15.8) n (%) and the “Drug-related TEAE: Capillary disorder” value (Total (N = 19)) was 1 (5.3) n (%). The “Drug-related TEAE: Constipation” value (Total (N = 19)) was 3 (15.8) n (%), the “Drug-related TEAE: Decreased appetite” value (Total (N = 19)) was 1 (5.3) n (%) and the “Drug-related TEAE: Dermatitis acneiform” value (Total (N = 19)) was 1 (5.3) n (%). The “Drug-related TEAE: Diarrhea” value (Total (N = 19)) was 1 (5.3) n (%), the “Drug-related TEAE: Drug eruption” value (Total (N = 19)) was 5 (26.3) n (%) and the “Drug-related TEAE: Dyslipidemia” value (Total (N = 19)) was 2 (10.5) n (%). The “Drug-related TEAE: Ejection fraction decreased” value (Total (N = 19)) was 1 (5.3) n (%), the “Drug-related TEAE: Electrocardiogram QT prolonged” value (Total (N = 19)) was 1 (5.3) n (%) and the “Drug-related TEAE: Electrocardiogram abnormal” value (Total (N = 19)) was 2 (10.5) n (%). For the same molecule, the “Drug-related TEAE: Epistaxis” value (Total (N = 19)) was 2 (10.5) n (%), the “Drug-related TEAE: Folliculitis” value (Total (N = 19)) was 9 (47.4) n (%) and the “Drug-related TEAE: Functional gastrointestinal disorder” value (Total (N = 19)) was 1 (5.3) n (%). The “Drug-related TEAE: Gamma-glutamyltransferase increased” value (Total (N = 19)) was 1 (5.3) n (%), the “Drug-related TEAE: Gingival pain” value (Total (N = 19)) was 1 (5.3) n (%) and the “Drug-related TEAE: Hyperlipidemia” value (Total (N = 19)) was 1 (5.3) n (%). For the same molecule, the “Drug-related TEAE: Hypertension” value (Total (N = 19)) was 1 (5.3) n (%), the “Drug-related TEAE: Hypoalbuminemia” value (Total (N = 19)) was 1 (5.3) n (%) and the “Drug-related TEAE: Hypocalcemia” value (Total (N = 19)) was 2 (10.5) n (%). For the same molecule, the “Drug-related TEAE: Hypophosphatemia” value (Total (N = 19)) was 1 (5.3) n (%), the “Drug-related TEAE: Hypoproteinemia” value (Total (N = 19)) was 1 (5.3) n (%) and the “Drug-related TEAE: Immunoglobulins increased” value (Total (N = 19)) was 4 (21.1) n (%). For the same molecule, the “Drug-related TEAE: Impetigo” value (Total (N = 19)) was 1 (5.3) n (%), the “Drug-related TEAE: Left atrial enlargement” value (Total (N = 19)) was 1 (5.3) n (%) and the “Drug-related TEAE: Lipoprotein abnormal” value (Total (N = 19)) was 1 (5.3) n (%). For the same molecule, the “Drug-related TEAE: Malaise” value (Total (N = 19)) was 1 (5.3) n (%), the “Drug-related TEAE: Menstrual disorder” value (Total (N = 19)) was 2 (10.5) n (%) and the “Drug-related TEAE: Mitral valve incompetence” value (Total (N = 19)) was 4 (21.1) n (%). The “Drug-related TEAE: Mouth ulceration” value (Total (N = 19)) was 4 (21.1) n (%), the “Drug-related TEAE: Muscular weakness” value (Total (N = 19)) was 1 (5.3) n (%) and the “Drug-related TEAE: Oedema peripheral” value (Total (N = 19)) was 1 (5.3) n (%). The “Drug-related TEAE: Pain in extremity” value (Total (N = 19)) was 1 (5.3) n (%), the “Drug-related TEAE: Paronychia” value (Total (N = 19)) was 6 (31.6) n (%) and the “Drug-related TEAE: Prealbumin decreased” value (Total (N = 19)) was 1 (5.3) n (%). The “Drug-related TEAE: Protein urine present” value (Total (N = 19)) was 5 (26.3) n (%), the “Drug-related TEAE: Pruritus” value (Total (N = 19)) was 1 (5.3) n (%) and the “Drug-related TEAE: QRS axis abnormal” value (Total (N = 19)) was 4 (21.1) n (%). For the same molecule, the “Drug-related TEAE: Rash” value (Total (N = 19)) was 3 (15.8) n (%), the “Drug-related TEAE: Sinus arrhythmia” value (Total (N = 19)) was 1 (5.3) n (%) and the “Drug-related TEAE: Sinus bradycardia” value (Total (N = 19)) was 1 (5.3) n (%). For the same molecule, the “Drug-related TEAE: Sinusitis” value (Total (N = 19)) was 1 (5.3) n (%), the “Drug-related TEAE: Skin exfoliation” value (Total (N = 19)) was 1 (5.3) n (%) and the “Drug-related TEAE: Specific gravity urine increased” value (Total (N = 19)) was 5 (26.3) n (%). For the same molecule, the “Drug-related TEAE: Stomatitis” value (Total (N = 19)) was 7 (36.8) n (%), the “Drug-related TEAE: Supraventricular extrasystoles” value (Total (N = 19)) was 1 (5.3) n (%) and the “Drug-related TEAE: Total bile acids increased” value (Total (N = 19)) was 3 (15.8) n (%). For the same molecule, the “Drug-related TEAE: Tricuspid valve incompetence” value (Total (N = 19)) was 3 (15.8) n (%), the “Drug-related TEAE: Urinary occult blood positive” value (Total (N = 19)) was 3 (15.8) n (%) and the “Drug-related TEAE: Urinary sediment present” value (Total (N = 19)) was 1 (5.3) n (%). For the same molecule, the “Drug-related TEAE: Urinary tract infection” value (Total (N = 19)) was 1 (5.3) n (%), the “Drug-related TEAE: Urine ketone body present” value (Total (N = 19)) was 2 (10.5) n (%) and the “Drug-related TEAE: Urobilinogen urine increased” value (Total (N = 19)) was 5 (26.3) n (%). The “Drug-related TEAE: Urticaria” value (Total (N = 19)) was 1 (5.3) n (%), the “Drug-related TEAE: Vision blurred” value (Total (N = 19)) was 1 (5.3) n (%) and the “Drug-related TEAE: Visual acuity reduced” value (Total (N = 19)) was 1 (5.3) n (%). For the same molecule, the “Drug-related TEAE: pH urine decreased” value (Total (N = 19)) was 3 (15.8) n (%), the “Drug-related TEAE: pH urine increased” value (Total (N = 19)) was 2 (10.5) n (%) and the “Subjects with any drug-related TEAE” value (Total (N = 19)) was 19 (100) n (%). The “Patients with grade 3 drug-related folliculitis” value (all dose levels) was “five”, the “Patients with grade 3 drug-related paronychia” value (all dose levels) was “four” and the “Patients with FCN-159-related TEAEs” value (all dose levels, n = 19) was 100%. For the same molecule, the “Patients with grade 3 study-drug-related TEAEs” value (all dose levels, nine of 19 patients) was 47.4%, the Blurred vision (all patients, n = 1/19) was 5.3% and the Reduced visual acuity (all patients, n = 1/19) was 5.3%. The “Drug-related TEAE mouth ulceration” value (all patients, n = 4/19) was 21.1%, the “Drug-related TEAE increased blood alkaline phosphatase” value (all patients, n = 6/19) was 31.6% and the “Drug-related TEAE paronychia” value (all patients, n = 6/19) was 31.6%. The “Drug-related TEAE stomatitis” value (all patients, n = 7/19) was 36.8%, the “Drug-related TEAE folliculitis” value (all patients, n = 9/19) was 47.4% and the Drug-related gastrointestinal disorders (all patients, twelve patients) was 63.2%. For the same molecule, the “Patients with eye disorders” value (all patients, two patients) was 10.5%, the “Recommended phase II dose (RP2D)” value (daily) was 8 mg and the “Maximum tolerated dose (MTD)” value (daily, 28-day cycles, fasting) was 8 mg. The “Deaths during the study” value (in vivo) was “No patients died”, the Dose reduction (mainly due to grade 3 paronychia and folliculitis) was 42.1% and the “Grade 3 drug-related TEAE in patients receiving doses below the MTD” value (paronychia, 6 mg dose) was “Only one”. The “SAE during treatment that led to drug withdrawal” value (rhegmatogenous retinal detachment, present at baseline, considered unrelated to the study drug) was “One patient”.
